Source: PMC9709406 (Frontiers in Pharmacology, 2022)
Like-named read-outs stand apart in the source and are kept apart here.

What was measured:
H1650 cells = assay: MTT assay for cell proliferation and cytotoxicity, H1650; format: cell-based; conditions: Homo sapiens, NCI-H1650, 48 h, H1650, n = 5
Method in brief: (§1)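 Absorbance at 490 nm after 1–4 h MTT incubation gave viability of cells exposed 48 h to test compound (0–50 μM; vehicle 0.1% DMSO). Seeding was 2,200–2,500 cells/well, one day before dosing, in RPMI-1640/10% FBS at 37 °C, 5% CO2.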

SHEE cells = assay: MTT assay, normal esophageal epithelial cell line SHEE; format: cell-based; conditions: Homo sapiens, 48 h, n = 5
Method in brief: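 Cells seeded at 2,200–2,500/well in RPMI-1640 with 10% FBS; taxol-resistant lines maintained in 100 nm/L paclitaxel. Compounds at 0–50 μM added next day (0.1% DMSO control), five replicate wells, 48 h exposure. Viability by MTT, absorbance 490 nm.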

KYSE410 cells = assay: MTT assay, KYSE410; format: cell-based, human; conditions: for IC50: Homo sapiens, KYSE-410
Method in brief: as §1

KYSE70TR cells = assay: MTT assay, taxol-resistant KYSE70TR; format: cell-based, human; conditions: for blank-corrected absorbance 490 nm relative to control (fraction) / inhibition (1 minus fraction of control): 70TR
Source text: (§2) The human cancer cells (H1650, H1975, KYSE70, KYSE410 and KYSE450) were purchased from the Type Culture Collection of the Chinese Academy of Sciences (Shanghai, China). The human immortalized normal esophageal epithelial cell line SHEE was donated by Dr. Enmin Li from the Laboratory of Tumor Pathology (Shantou University Medical College, Shantou, Guangdong, China). Drug-resistant cells (H1650TR, H1975OR, KYSE70TR, KYSE410TR and KYSE450TR) were induced by China-US (Henan) Hormel Cancer Institute. The cellswere cultured in RPMI-1640 complete growth medium containing 100 U/mL penicillin-streptomycin and 10% FBS. Based on the above medium formula, 100 nm/L paclitaxel was added in taxol-resistant cells, 100 nm/L gefitinib was added in gefitinib-resistant cells. The cells were incubated at 37 °C in an atmosphere containing 5% of CO2. The compounds were dissolved in DMSO to make a 50 mM stock solution and were diluted to the concentration of working solutions with complete growth medium before administration.
(§3) Cells were seeded in 96-well plates with 2,200–2,500 cells/well in100 μL. One day after seeding, test compounds with the concentration between 0 and 50 μM were added with 0.1% DMSO as control. Five multiple wells for each concentration. […] The absorbance at 490 nm was measured using a microplate reader (Thermo).

KYSE410TR cells = assay: MTT assay, taxol-resistant KYSE410TR; format: cell-based, human; conditions: for blank-corrected absorbance 490 nm relative to control (fraction) / inhibition (1 minus fraction of control): 410TR
Source text: as §2, §3

KYSE450TR cells [1] = assay: MTT assay, taxol-resistant KYSE450TR; format: cell-based, human; conditions: for blank-corrected absorbance 490 nm relative to control (fraction) / inhibition (1 minus fraction of control): 450TR; for IC50: Homo sapiens, MTT
Source text: as §2, §3

EGFR = biological target: T1, EGFR (Homo sapiens, UniProt P00533); assay: EGFR kinase assay (ELISA); format: biochemical; conditions: 25°C
T1 construct: purchased Active MOTIF
Method in brief: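 ELISA-format tyrosine kinase kit assay with commercially sourced EGFR enzyme. Active kinase and compounds were incubated in 1× reaction buffer with 20 μM substrate at 25 °C for 1 h and 2 h. Absorbance was read at 450 nm.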

KYSE450TR cells [2] = assay: Cell cycle analysis by flow cytometry, KYSE450TR; format: cell-based, human; conditions: 24 h, icotinib at 8 μM, 3l at 8 μM
Procedure: KYSE450/KYSE450TR cells were plated in 6-well plates with a density of 1×10^5 cells/well and cultured overnight. […] Trypsinization treatment and the cells were collected by centrifugation. The cell pellet was re-suspended in 70% ethanol at −20°C for at least 3 h. The cells were washed with PBS and were re-suspended in 250 μL of 0.6% tricine with Renease A for 1 h, then stained in PI (final concentration 1.8 μg/ml, Biolegend cat: 640945) for 15 min in dark. Cells were retransferred to the BD FACSCalibur™ Flow Cytometer. All analyses were performed with FlowJo software v105.3.6.

[3] = test system: KYSE450 cell-derived xenograft; assay: In vivo cell-derived xenograft (CDX) mouse model; set-up: species or system nu/nu nude mice
Procedure: Mice were housed under specific pathogen-free conditions. All animal experiments were approved by the Bioethics Committee of Zhengzhou University and followed the guidelines set by the Institutional Animal Care and Use Committee (CUHCI2019002, CUHCI2021001, and CUHCI2021005). To generate the cell-derived xenograft (CDX) mouse model, nu/nu nude mice (Vital River Labs., Beijing, China) were subcutaneously injected with 5 × 10^6 cells (KYSE450). […] Tumor volume was calculated as follows: length × width × height × 0.5. Tumor size and mice weight were measured every 2–3 days. Compounds were administered for 15 days. The tumors were extracted for weighting, immunohistochemistry and immunofluorescence studies.
Frozen sections were washed three times with PBS and incubated overnight at 4°C with Ki-67 antibody. The next day, sections were washed three times and incubated with secondary antibody in PBS. After several washes, slides were counterstained with DAPI (Solarbio). The sections were mounted on microscope and imaged using fluorescent microscopy (Nikon, Tokyo, Japan). Image-Pro Plus 6.0 was used to analyze the fluorescence intensity.
Histological sections were dewaxed, antigens were repaired and sealed with serum in sequence. Next, histological sections were incubated overnight with diluted primary antibodies (1 : 500 dilution), and the control specimens were treated with PBS. The sections were washed 3 times with PBS. Secondary antibody was added and the system was then placed at 37 °C for half an hour. The systems were washed 3 times with PBS. Color developing agent was added. After washing with water, the system was soaked in hematoxylin for 0.5 min for dyeing. The re-dyed slides were washed with water, and then dehydrated. Neutral gums were dropped on the side of the tissue. The slices were then covered with cover glass, sealed and placed in a ventilator for drying. Immunohistochemical staining analysis was then carried out with Image-Pro Plus 6.0.

[4] = nude mice, 50 mg/kg i.p. every day, 15 days, vs control group and icotinib group

T1 sequence (P00533 25-1210): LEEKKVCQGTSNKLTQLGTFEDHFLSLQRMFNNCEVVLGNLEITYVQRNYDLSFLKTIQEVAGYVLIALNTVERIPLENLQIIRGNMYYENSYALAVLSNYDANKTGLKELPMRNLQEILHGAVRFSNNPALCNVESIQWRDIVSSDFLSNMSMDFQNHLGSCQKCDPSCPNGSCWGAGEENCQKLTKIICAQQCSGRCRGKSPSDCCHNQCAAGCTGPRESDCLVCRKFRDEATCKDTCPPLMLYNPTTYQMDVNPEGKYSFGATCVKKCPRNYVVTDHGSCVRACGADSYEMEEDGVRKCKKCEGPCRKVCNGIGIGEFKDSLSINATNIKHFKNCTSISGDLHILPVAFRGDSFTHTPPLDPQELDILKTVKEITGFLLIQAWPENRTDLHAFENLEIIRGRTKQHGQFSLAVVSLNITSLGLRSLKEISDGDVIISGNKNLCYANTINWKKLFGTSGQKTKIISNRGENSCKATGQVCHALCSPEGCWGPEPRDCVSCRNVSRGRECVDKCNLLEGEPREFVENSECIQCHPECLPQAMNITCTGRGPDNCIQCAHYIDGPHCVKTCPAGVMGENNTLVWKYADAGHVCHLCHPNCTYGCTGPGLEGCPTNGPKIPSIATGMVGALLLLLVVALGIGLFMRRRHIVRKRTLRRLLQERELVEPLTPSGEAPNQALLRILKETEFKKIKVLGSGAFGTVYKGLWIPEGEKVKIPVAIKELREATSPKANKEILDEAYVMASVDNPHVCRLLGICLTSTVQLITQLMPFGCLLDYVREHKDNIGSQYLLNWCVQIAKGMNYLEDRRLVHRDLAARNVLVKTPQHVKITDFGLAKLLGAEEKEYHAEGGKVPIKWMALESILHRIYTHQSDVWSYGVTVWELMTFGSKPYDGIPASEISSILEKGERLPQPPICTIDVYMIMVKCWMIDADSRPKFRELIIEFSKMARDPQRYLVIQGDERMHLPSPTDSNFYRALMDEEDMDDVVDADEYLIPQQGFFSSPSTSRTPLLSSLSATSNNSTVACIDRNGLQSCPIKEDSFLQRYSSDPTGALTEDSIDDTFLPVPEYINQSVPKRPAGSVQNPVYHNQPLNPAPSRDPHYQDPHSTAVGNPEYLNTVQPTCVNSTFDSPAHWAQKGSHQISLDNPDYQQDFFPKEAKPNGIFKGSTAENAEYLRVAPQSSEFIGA

In the case of `FC(F)(F)c1ccc(-n2cc(-c3cccc(Nc4ncnc5cc6c(cc45)OCCOCCOCCO6)c3)nn2)cc1` [compound 3l], the IC50 (H1650 cells) is reported as 4.4 ± 0.32 µM, the IC50 (SHEE cells) is reported as 4.82 ± 0.23 µM and the IC50 (KYSE410 cells; KYSE410, MTT, 490 nm, read-out: IC50) is reported as 7 µM. For the same molecule, the IC50 (KYSE410 cells; MTT, 48 h, KYSE410, n = 5, read-out: IC50 48 h KYSE410) was 5.94 ± 0.41 µM, the “blank-corrected absorbance 490 nm relative to control (fraction)” value (KYSE410 cells; KYSE410, concentration 3.5) was 0.6286 and the “inhibition (1 minus fraction of control)” value (KYSE410 cells; KYSE410, concentration 3.5) was 0.3714. The “blank-corrected absorbance 490 nm relative to control (fraction)” value (KYSE410 cells; KYSE410, concentration 7) was 0.487, the “inhibition (1 minus fraction of control)” value (KYSE410 cells; KYSE410, concentration 7) was 0.513 and the “blank-corrected absorbance 490 nm relative to control (fraction)” value (KYSE410 cells; KYSE410, concentration 14) was 0.3214. For the same molecule, the “inhibition (1 minus fraction of control)” value (KYSE410 cells; KYSE410, concentration 14) was 0.6786, the “blank-corrected absorbance 490 nm relative to control (fraction)” value (KYSE70TR cells; concentration 3) was 0.722 and the “inhibition (1 minus fraction of control)” value (KYSE70TR cells; concentration 3) was 0.278. For the same molecule, the “blank-corrected absorbance 490 nm relative to control (fraction)” value (KYSE70TR cells; concentration 6) was 0.41, the “inhibition (1 minus fraction of control)” value (KYSE70TR cells; concentration 6) was 0.59 and the “blank-corrected absorbance 490 nm relative to control (fraction)” value (KYSE70TR cells; concentration 12) was 0.2379. For the same molecule, the “inhibition (1 minus fraction of control)” value (KYSE70TR cells; concentration 12) was 0.7621, the IC50 (KYSE70TR cells; Homo sapiens, MTT, 48 h, taxol-resistant KYSE70TR, value in parentheses, read-out: IC50 48 h KYSE70TR (data in parentheses) (converted)) was 5.13 µM and the “blank-corrected absorbance 490 nm relative to control (fraction)” value (KYSE410TR cells; concentration 4) was 0.5568. For the same molecule, the “inhibition (1 minus fraction of control)” value (KYSE410TR cells; concentration 4) was 0.4432, the “blank-corrected absorbance 490 nm relative to control (fraction)” value (KYSE410TR cells; concentration 8) was 0.3771 and the “inhibition (1 minus fraction of control)” value (KYSE410TR cells; concentration 8) was 0.6229. The “blank-corrected absorbance 490 nm relative to control (fraction)” value (KYSE410TR cells; concentration 16) was 0.2345, the “inhibition (1 minus fraction of control)” value (KYSE410TR cells; concentration 16) was 0.7655 and the IC50 (KYSE410TR cells; Homo sapiens, MTT, 48 h, taxol-resistant KYSE410TR, value in parentheses, read-out: IC50 48 h KYSE410TR (data in parentheses) (converted)) was 5.3 µM. For the same molecule, the “blank-corrected absorbance 490 nm relative to control (fraction)” value (KYSE450TR cells [1]; concentration 4) was 0.04737, the “inhibition (1 minus fraction of control)” value (KYSE450TR cells [1]; concentration 4) was 0.9526 and the “blank-corrected absorbance 490 nm relative to control (fraction)” value (KYSE450TR cells [1]; concentration 8) was 0.04791. For the same molecule, the “inhibition (1 minus fraction of control)” value (KYSE450TR cells [1]; concentration 8) was 0.9521, the “blank-corrected absorbance 490 nm relative to control (fraction)” value (KYSE450TR cells [1]; concentration 16) was 0.1075 and the “inhibition (1 minus fraction of control)” value (KYSE450TR cells [1]; concentration 16) was 0.8925. The IC50 (KYSE450TR cells [1]; 450t (KYSE450TR), 490 nm, read-out: IC50) was 2.1 µM, the IC50 (KYSE450TR cells [1]; 48 h, taxol-resistant KYSE450TR, value in parentheses, read-out: IC50 48 h KYSE450TR (data in parentheses) (converted)) was 8.59 µM and the IC50 (EGFR; incubation 1 h, read-out: IC50 EGFR 1 h) was 0.42 µM. The IC50 (EGFR; incubation 2 h, read-out: IC50 EGFR 2 h) was 1.67 µM, the “cell cycle phase in which cells were arrested” value (KYSE450TR cells [2]) was “G2/M phase” and the “expression of proliferation marker Ki-67 in tumor” value ([3]; 50 mg/kg i.p., immunofluorescence) was “decreased significantly”. The “expression of P-ERK (Tyr202/204) in tumor” value ([3]; 50 mg/kg i.p., immunohistochemistry) was “decreased significantly”, the ESCC tumor volume [3, 4] was “markedly reduced” and the average tumor weight [3, 4] was “markedly reduced”.
